From PubChem BioAssay AID1259411 (Chemical Carcinogenesis Research Information System (CCRIS), 2018) come the findings set out here.

In this data set the test system is rodent carcinogenicity bioassays, tumor incidence. Briefly: CCRIS carcinogenicity studies. In a few lines:
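Archive of carcinogenicity, mutagenicity, tumor promotion and tumor inhibition results drawn from journals, NCI reports and other sources, expert-reviewed; covers 1985-2011 and is no longer updated.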

Active and inactive are the calls of the source. The rule behind the calls is not given here.

Turning to `COc1ccc(OC(=O)N(CC(=O)O)Cc2ccc(OCCc3nc(-c4ccccc4)oc3C)cc2)cc1`, the carcinogen call by setting is: (Species: Mouse, Strain/Sex: Crl:CD-1 (ICR)BR/Female (60/group), Route: Oral, Dose: 0, 1, 5, 20 mg/kg (initial group) or 0, 40 mg/kg (supplemental group) by gavage daily for up to 105 wks, vehicle cont, Dose: 0, 1, 5, 20 mg/kg (initial group) or 0, 40 mg/kg (supplemental group) by gavage daily for up to 105 wks, vehicle cont) “inactive; negative (slight increases in hemangiosarcoma (multiple organs) and mammary glan”; (Species: Mouse, Strain/Sex: Crl:CD-1 (ICR)BR/Male (60/group), Route: Oral, Dose: 0, 1, 5, 20 mg/kg (initial group) or 0, 40 mg/kg (supplemental group) by gavage daily for up to 105 wks, vehicle cont, Dose: 0, 1, 5, 20 mg/kg (initial group) or 0, 40 mg/kg (supplemental group) by gavage daily for up to 105 wks, vehicle cont, Tumor Site: Type of Lesion: GALLBLADDER: adenoma (1/60 at 20 mg/kg, 2/60 at 40 mg/kg), not significant) “inactive; negative (although statistical significance was not obtained, the authors consid”; (Species: Rat, Strain/Sex: Hsd:Sprague Dawley SD/Female (65/group), Route: Oral, Dose: 0, 1, 5, 30, 50 mg/kg by gavage daily for up to 105 wks, vehicle controls administered alkaline PEG-400, Dose: 0, 1, 5, 30, 50 mg/kg by gavage daily for up to 105 wks, vehicle controls administered alkaline PEG-400, Tumor Site: Type of Lesion: SUBCUTANEOUS TISSUE: lipoma (50 mg/kg only). UTERUS: Squamous cell carcinoma, adenoma and carcinoma, and squamous cell p, Tumor Site: Type of Lesion: SUBCUTANEOUS TISSUE: lipoma (50 mg/kg only). UTERUS: Squamous cell carcinoma, adenoma and carcinoma, and squamous cell p) “active; positive (weak response)”; (Species: Rat, Strain/Sex: Hsd:Sprague Dawley SD/Male (65/group), Route: Oral, Dose: 0, 1, 5, 30, 50 mg/kg by gavage daily for up to 105 wks, vehicle controls administered alkaline PEG-400, Dose: 0, 1, 5, 30, 50 mg/kg by gavage daily for up to 105 wks, vehicle controls administered alkaline PEG-400, Tumor Site: Type of Lesion: URINARY BLADDER: transitional cell carcinoma and papilloma at 5, 30, and 50 mg/kg associated with increased urinary soli) “active; positive, muraglitazar reported to be a peroxisome proliferator-activated recept”.

With `C[C@]12CC[C@@H]3c4ccc(O)cc4CC[C@H]3[C@@H]1CCC2=O`, the carcinogen call (Species: HAMSTER, Route: SUBCUTANEOUS, SUBCUTANEOUS IMPLANT, Tumor Site: Type of Lesion: KIDNEY) is “active; positive”; the carcinogen call (Species: HAMSTER, Strain/Sex: SYRIAN/MALE, Route: SUBCUTANEOUS IMPLANT, Dose: 0, 20 MG PELLET, SINGLE DOSE, Tumor Site: Type of Lesion: KIDNEY) is “active; positive”; the carcinogen call (Species: HAMSTER, Strain/Sex: SYRIAN/MALE, Route: SUBCUTANEOUS IMPLANT, Dose: 0, 20 MG IN PELLETS IMPLANTED EVERY 2.5 MO FOR 9 MO (STUDY DURATION: 9 MO), Tumor Site: Type of Lesion: KIDNEY: TUMOR) is “active; positive”; the carcinogen call (Species: HAMSTER, Strain/Sex: SYRIAN/MALE, Route: SUBCUTANEOUS, Tumor Site: Type of Lesion: KIDNEY, PITUITARY GLAND: ADENOMA) was “active; positive”; the carcinogen call (Species: HUMAN, Tumor Site: Type of Lesion: UTERUS (ENDOMETRIUM)) was “active; positive”; the carcinogen call (Species: MOUSE, Route: ORAL, SUBCUTANEOUS, DERMAL, SUBCUTANEOUS IMPLANT, Tumor Site: Type of Lesion: MAMMARY GLAND) was “active; positive”. The carcinogen call is, setting by setting: (Species: MOUSE, Strain/Sex: C3H, C3HE(MTV-)/MALE, Route: ORAL, Dose: 125, 2000 UG/L IN DRINKING WATER, Tumor Site: Type of Lesion: MAMMARY GLAND) “active; positive”; (Species: MOUSE, Strain/Sex: C3R3(MTV+)/MALE, Route: DIET, Dose: 0, 0.06, 0.6, 6 UG/D, Tumor Site: Type of Lesion: MAMMARY GLAND) “active; positive”; (Species: MOUSE, Strain/Sex: GRS/AFIB(MTV+)/FEMALE, Route: ORAL, Dose: 0, 0.5 UG/ML FOR 14-25 WK IN DRINKING WATER, Tumor Site: Type of Lesion: UTERUS) “active; positive”; (Species: RAT, Route: SUBCUTANEOUS, SUBCUTANEOUS IMPLANT, Tumor Site: Type of Lesion: ADRENAL GLAND, KIDNEY, MAMMARY GLAND, PITUITARY GLAND, URINARY BLADDER, Tumor Site: Type of Lesion: ADRENAL GLAND, KIDNEY, MAMMARY GLAND, PITUITARY GLAND, URINARY BLADDER) “active; positive”; (Species: RAT, Strain/Sex: AUGUST/MALE,FEMALE, Route: SUBCUTANEOUS IMPLANT, Dose: 8-12 MG PELLET, SINGLE DOSE, Tumor Site: Type of Lesion: MAMMARY GLAND) “active; positive”; (Species: RAT, Strain/Sex: AXC/MALE,FEMALE, Route: SUBCUTANEOUS IMPLANT, Dose: 8-12 MG PELLET, SINGLE DOSE, Tumor Site: Type of Lesion: MAMMARY GLAND) “active; positive”. The carcinogen call was “active; positive” (Species: RAT, Strain/Sex: COPENHAGEN/MALE,FEMALE, Route: SUBCUTANEOUS IMPLANT, Dose: 8-12 MG PELLET, SINGLE DOSE, Tumor Site: Type of Lesion: URINARY BLADDER) and “active; positive” (Species: RAT, Strain/Sex: F344/MALE,FEMALE, Route: SUBCUTANEOUS IMPLANT, Dose: 8-12 MG PELLET, SINGLE DOSE, Tumor Site: Type of Lesion: MAMMARY GLAND).

With `c1ccc2c(c1)ccc1c2ccc2c3ccccc3ccc21`, the carcinogen call was “active; positive” (Species: MOUSE, Strain/Sex: NMRI/FEMALE, Route: DERMAL, Dose: 0, 136, 448, 1358 NMOL (TOTAL DOSE) APPLIED AS 1 DROP OF ACETONE SOLUTION 3/WK FOR DURATION OF STUDY (STUDY DURATION: 11, Dose: 0, 136, 448, 1358 NMOL (TOTAL DOSE) APPLIED AS 1 DROP OF ACETONE SOLUTION 3/WK FOR DURATION OF STUDY (STUDY DURATION: 11, Tumor Site: Type of Lesion: SKIN: PAPILLOMA); “active; positive” (Species: MOUSE, Strain/Sex: NMRI/FEMALE, Route: SUBCUTANEOUS, Dose: 0, 36, 40, 108, 308, 399 NMOL IN TRICAPRYLIN ONCE (STUDY DURATION: 112 WK), Dose: 0, 36, 40, 108, 308, 399 NMOL IN TRICAPRYLIN ONCE (STUDY DURATION: 112 WK), Tumor Site: Type of Lesion: INJECTION SITE: FIBROSARCOMA); “active; positive” (Species: MOUSE, Strain/Sex: NMRI/FEMALE, Route: SUBCUTANEOUS, Dose: 0, 40, 400 NMOL IN 0.05 ML OF AN AQUEOUS SOLUTION CONTAINING 1% (W/W) GELATIN 0.9% (W/W) SODIUM CHLORIDE AND 0.4% (W/W), Dose: 0, 40, 400 NMOL IN 0.05 ML OF AN AQUEOUS SOLUTION CONTAINING 1% (W/W) GELATIN 0.9% (W/W) SODIUM CHLORIDE AND 0.4% (W/W), Tumor Site: Type of Lesion: LUNG: ADENOMA).

On to `CCCC[C@@H](C)[C@@H](OC(=O)C[C@@H](CC(=O)O)C(=O)O)[C@H](C[C@@H](C)C[C@H](O)CCCC[C@@H](O)C[C@H](O)[C@H](C)N)OC(=O)C[C@@H](CC(=O)O)C(=O)O`, for which the carcinogen call is “inactive; negative” (Species: FISH, Strain/Sex: SHASTA RAINBOW TROUT/MALE,FEMALE, Route: ORAL, Dose: 0, 3.2, 23, 104 PPM IN DIET FOR 4 WK, RESUMED AFTER 2 WK FOR 30 WK (STUDY DURATION: 60 WK), Dose: 0, 3.2, 23, 104 PPM IN DIET FOR 4 WK, RESUMED AFTER 2 WK FOR 30 WK (STUDY DURATION: 60 WK)); “active; positive” (Species: MOUSE, Strain/Sex: B6C3F1/FEMALE, Route: ORAL, Dose: 0, 5, 15, 50, 80 PPM IN DIET FOR 104 WK (STUDY DURATION: 104 WK), Dose: 0, 5, 15, 50, 80 PPM IN DIET FOR 104 WK (STUDY DURATION: 104 WK), Tumor Site: Type of Lesion: LIVER: HEPATOCELLULAR ADENOMA, HEPATOCELLULAR CARCINOMA); “inactive; negative” (Species: MOUSE, Strain/Sex: B6C3F1/MALE, Route: ORAL, Dose: 0, 5, 15, 80, 150 PPM IN DIET FOR 104 WK (STUDY DURATION: 104 WK), Dose: 0, 5, 15, 80, 150 PPM IN DIET FOR 104 WK (STUDY DURATION: 104 WK)); “inactive; negative” (Species: RAT, Strain/Sex: BDIX/MALE,FEMALE, Route: ORAL, Dose: 0, 1, 10, 25 MG/KG DIET FOR 2 YR (STUDY DURATION: 2 YR), Dose: 0, 1, 10, 25 MG/KG DIET FOR 2 YR (STUDY DURATION: 2 YR)); “active; positive” (Species: RAT, Strain/Sex: BDIX/MALE, Route: ORAL, Dose: 0, 50 MG/KG DIET FOR 26 MO (STUDY DURATION: 26 MO), Tumor Site: Type of Lesion: LIVER: HEPATOCELLULAR CARCINOMA); “inactive; negative” (Species: RAT, Strain/Sex: F344/FEMALE, Route: ORAL, Dose: 0, 5, 15, 50, 100 PPM IN DIET FOR 104 WK (STUDY DURATION: 104 WK), Dose: 0, 5, 15, 50, 100 PPM IN DIET FOR 104 WK (STUDY DURATION: 104 WK)). The carcinogen call (Species: RAT, Strain/Sex: F344/MALE, Route: ORAL, Dose: 0, 5, 15, 50, 150 PPM IN DIET FOR 104 WK (STUDY DURATION: 104 WK), Dose: 0, 5, 15, 50, 150 PPM IN DIET FOR 104 WK (STUDY DURATION: 104 WK), Tumor Site: Type of Lesion: KIDNEY: RENAL TUBULE ADENOMA, RENAL TUBULE CARCINOMA) was “active; positive”.
